molecular target: hENPP2 (UniProtKB/SwissProt Sequence ref Q13822) (Homo sapiens (Human), UniProt Q13822); assay: LPC hENPP2 assay (choline release, LPC as substrate); format: biochemical
Procedure, shortened: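 Detection is coupled: choline oxidase produces peroxide, which HRP uses to form quinoneimine dye from TOOS and 4-aminoantipyrine, read at 555 nm. The reaction is stopped with 20 mM EGTA in the developer mix, then incubated 30 min at room temperature; inhibition lowers signal.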

Row | SMILES | IC50
1 | CCc1nc2ccc(N3CCN(CC(=O)N4CCC4)CC3)nn2c1N(C)c1nc(-c2ccc(F)cc2)cs1 [Cpd 36, 1-(azetidin-1-yl)-2-(4-(2-ethyl-3-((4-(4-fluorophenyl)thiazol-2-yl)(methyl)amino)imidazo[1,2-b]pyridazin-6-yl)piperazin-1-yl)ethanone] | 100 to 500 nM
2 | CCc1nc2ccc(N3CCC(N4CCNC(=O)C4)C3)nn2c1N(C)c1nc(-c2ccc(F)cc2)cs1 (centres unmarked) [Cpd 146, 4-(1-(2-ethyl-3-((4-(4-fluorophenyl)thiazol-2-yl)(methyl)amino)imidazo[1,2-b]pyridazin-6-yl)pyrrolidin-3-yl)piperazin-2-one] | 500 to 1000 nM
3 | CCc1nc2ccc(N3CCC(NC(=O)C4CCN(C(=O)OC(C)(C)C)CC4)CC3)nn2c1N(C)c1nc(-c2ccc(F)cc2)cs1 [Cpd 87, tert-butyl 4-(1-(2-ethyl-3-((4-(4-fluorophenyl)thiazol-2-yl)(methyl)amino)imidazo[1,2-b]pyridazin-6-yl)piperidin-4-ylcarbamoyl) piperidine-1-carboxylate] | > 1000 nM
4 | CCc1nc2ccc(N3CC(C(=O)N4CCC(O)C4)C3)nn2c1N(C)c1nc(-c2ccc(F)cc2)c(C#N)s1 (centres unmarked) [Cpd 192, 2-((2-ethyl-6-(3-(3-hydroxy-pyrrolidine-1-carbonyl)azetidin-1-yl)imidazo[1,2-b]pyridazin-3-yl)(methyl)amino)-4-(4-fluorophenyl) thiazole-5-carbonitrile] | 100 to 500 nM
5 | CCc1nc2ccc(N3CCC(O)(CNC(=O)OC)C3)nn2c1N(C)c1nc(-c2ccc(F)cc2)c(C#N)s1 (centres unmarked) [Cpd 168, methyl (1-(3-((5-cyano-4-(4-fluorophenyl)thiazol-2-yl)(methyl)amino)-2-ethylimidazo[1,2-b]pyridazin-6-yl)-3-hydroxypyrrolidin-3-yl)] | 0.01 to 100 nM
6 | CCc1nc2ccc(N3CCC(CO)C3)nn2c1N(C)c1nc(-c2ccc(F)cc2)c(CO)s1 (centres unmarked) [Compound 144, (1-(2-ethyl-3-((4-(4-fluorophenyl)-5-(hydroxymethyl)thiazol-2-yl)(methyl)amino)imidazo[, 2-b]pyridazin-6-yl)pyrrolidin-3-yl)methanol] | 500 to 1000 nM
7 | CCc1nc2ccc(N3CCN(C4COC4)CC3)nn2c1N(C)c1nc(-c2ccc(F)cc2)cs1 [Compound 38, N-(2-ethyl-6-(4-(oxetan-3-yl)piperazin-1-yl)imidazo[1,2-b]pyridazin-3-yl)-4-(4-fluorophenyl)-N-methylthiazol-2-amine] | > 1000 nM
8 | CCc1nc2ccc(N3CCN(CC4CNC(=O)O4)CC3)nn2c1N(C)c1nc(-c2ccc(F)cc2)c(CO)s1 (centres unmarked) [Cpd 41, 5-((4-(2-ethyl-3-((4-(4-fluorophenyl)-5-(hydroxymethyl)thiazol-2-yl)(methyl)amino)imidazo[1,2-b]pyridazin-6-yl)piperazin-1-yl)methyl) oxazolidin-2-one] | 500 to 1000 nM
9 | CCc1nc2ccc(N3CC(NCC(=O)N4CC(O)C4)C3)nn2c1N(C)c1nc(-c2ccc(F)cc2)cs1 [Cpd 155, 2-(1-(2-ethyl-3-((4-(4-fluorophenyl)thiazol-2-yl)(methyl)amino)imidazo[1,2-b]pyridazin-6-yl)azetidin-3-ylamino)-1-(3-hydroxyazetidin-1-yl)ethanone] | 100 to 500 nM
10 | CCc1nc2ccc(N3CCN4C(=O)COC[C@@H]4C3)nn2c1N(C)c1nc(-c2ccc(F)cc2)cs1 [Compound 66, (S)-8-(2-ethyl-3-((4-(4-fluorophenyl)thiazol-2-yl)(methyl)amino)imidazo[1,2-b]pyridazin-6-yl)hexahydropyrazino[2,1-c][1,4]oxazin-4(1H)-one] | > 1000 nM
11 | CCc1nc2ccc(N3CCC(NC(=O)N4CCCC4)CC3)nn2c1N(C)c1nc(-c2ccc(F)cc2)cs1 [Compound 89, N-(1-(2-ethyl-3-((4-(4-fluorophenyl)thiazol-2-yl)(methyl)amino)imidazo[1,2-b]pyridazin-6-yl)piperidin-4-yl)pyrrolidine-1-carboxamide] | 500 to 1000 nM
12 | CCc1nc2ccc(C3CCN(CC(=O)N(C)C)CC3)nn2c1N(C)c1nc(-c2ccc(F)cc2)c(CO)s1 [Cpd 203, 2-(4-(2-ethyl-3-((4-(4-fluorophenyl)-5-(hydroxymethyl)thiazol-2-yl)(methyl)amino)imidazo[1,2-b]pyridazin-6-yl)piperidin-1-yl)-N,N-dimethylacetamide] | 500 to 1000 nM
13 | CCc1nc2ccc(N3CCN(CC(=O)NCCO)CC3)nn2c1N(C)c1nc(-c2ccc(F)cc2)cs1 [Cpd 35, 2-(4-(2-ethyl-3-((4-(4-fluorophenyl)thiazol-2-yl)(methyl)amino)imidazo[1,2-b]pyridazin-6-yl)piperazin-1-yl)-N-(2-hydroxyethyl) acetamide] | > 1000 nM
14 | CCc1nc2cnc(N3CCNCC3)cn2c1N(C)c1nc(-c2ccc(F)cc2C#N)cs1 [Cpd 15, 2-(2-((2-ethyl-6-(piperazin-1-yl)imidazo[1,2-a]pyrazin-3-yl)(methyl)amino)thiazol-4-yl)-5-fluorobenzonitrile] | > 1000 nM
15 | CCc1nc2ccc(N3CCN(CC(=O)NC)CC3)nn2c1N(C)c1nc(-c2ccc(F)cc2)cs1 [Cpd 30] | 500 to 1000 nM
16 | CCc1nc2ccc(N3CC(NCC(=O)N4CC(O)C4)C3)nn2c1N(C)c1nc(-c2ccc(F)cc2)c(C#N)s1 [Cpd 189, 2-((2-ethyl-6-(3-(2-(3-hydroxyazetidin-1-yl)-2-oxoethylamino)azetidin-1-yl)imidazo[1,2-b]pyridazin-3-yl)(methyl)amino)-4-(4-fluorophenyl) thiazole-5-carbonitrile] | 0.01 to 100 nM
17 | CCc1nc2ccc(N3CCN(C4CCN(Cc5ccc(OC)cc5)C4=O)CC3)nn2c1N(C)c1nc(-c2ccc(F)cc2)cs1 (centres unmarked) [Cpd 70, 3-(4-(2-ethyl-3-((4-(4-fluorophenyl)thiazol-2-yl)(methyl)amino)imidazo[1,2-b]pyridazin-6-yl)piperazin-1-yl)-1-(4-methoxybenzyl) pyrrolidin-2-one] | 500 to 1000 nM
18 | CCc1nc2ccc(N3CCC4(CN(C)C(=O)O4)C3)nn2c1N(C)c1nc(-c2ccc(F)cc2)c(CO)s1 (centres unmarked) [Cpd 120, 7-(2-ethyl-3-((4-(4-fluorophenyl)-5-(hydroxymethyl)thiazol-2-yl)(methyl)amino)imidazo[1,2-b]pyridazin-6-yl)-3-methyl-1-oxa-3,7-diazaspiro[4.4] nonan-2-one] | 100 to 500 nM
19 | CCc1nc2ccc(N3CC(NS(C)(=O)=O)C3)nn2c1N(C)c1nc(-c2ccc(F)cc2)cs1 [Cpd 158, N-(1-(2-ethyl-3-((4-(4-fluorophenyl)thiazol-2-yl)(methyl)amino)imidazo[1,2-b]pyridazin-6-yl)azetidin-3-yl)methane-sulfonamide] | 500 to 1000 nM
20 | CCc1nc2ccc(N3CC(NS(C)(=O)=O)C3)nn2c1N(C)c1nc(-c2ccc(F)cc2)c(C#N)s1 [Cpd 190, N-(1-(3-((5-cyano-4-(4-fluorophenyl)thiazol-2-yl)(methyl)amino)-2-ethylimidazo[1,2-b]pyridazin-6-yl)azetidin-3-yl)methane-sulfonamide] | 0.01 to 100 nM
21 | CCc1nc2ccc(N3CCN(C4CCOCC4)CC3)nn2c1N(C)c1nc(-c2ccc(F)cc2)cs1 [Cpd 39, N-(2-ethyl-6-(4-(tetrahydro-2H-pyran-4-yl)piperazin-1-yl)imidazo[1,2-b]pyridazin-3-yl)-4-(4-fluorophenyl)-N-methylthiazol-2-amine] | > 1000 nM
22 | CCc1nc2ccc(C3CCN(CC(=O)N4CC(O)C4)CC3)nn2c1N(C)c1nc(-c2ccc(F)cc2C#N)ns1 [Cpd 220, 2-(5-((2-ethyl-6-(1-(2-(3-hydroxyazetidin-1-yl)-2-oxoethyl)piperidin-4-yl)imidazo[1,2-b]pyridazin-3-yl)(methyl)amino)-1,2,4-thiadiazol-3-yl)-5-fluorobenzonitrile] | 100 to 500 nM
23 | CCc1nc2ccc(C3CCN(CC(=O)N4CC(O)C4)CC3)nn2c1N(C)c1nc(-c2ccc(F)cc2C#N)cs1 [Cpd 207, 2-(2-((2-ethyl-6-(1-(2-(3-hydroxyazetidin-1-yl)-2-oxoethyl)piperidin-4-yl)imidazo[1,2-b]pyridazin-3-yl)(methyl)amino)thiazol-4-yl)-5-fluorobenzonitrile] | 100 to 500 nM
24 | CCc1nc2ccc(N3CCCC4(CNC(=O)O4)C3)nn2c1N(C)c1nc(-c2ccc(F)cc2)c(C#N)s1 (centres unmarked) [Cpd 162, 2-((2-ethyl-6-(2-oxo-1-oxa-3,7-diazaspiro[4.5]decan-7-yl)imidazo [1,2-b]pyridazin-3-yl)(methyl)amino)-4-(4-fluorophenyl) thiazole-5-carbonitrile] | 100 to 500 nM
25 | CCc1nc2ccc(N3CCC(N4CCN(C(C)=O)CC4)C3)nn2c1N(C)c1nc(-c2ccc(F)cc2)c(C#N)s1 (centres unmarked) [Cpd 180, 2-((6-(3-(4-acetoylpiperazin-1-yl)pyrrolidin-1-yl)-2-ethylimidazo[1,2-b]pyridazin-3-yl)(methyl)amino)-4-(4-fluorophenyl) thiazole-5-carbonitrile] | 0.01 to 100 nM
26 | CCc1nc2cnc(N3CCN(CC(=O)N4CC(O)C4)CC3)cn2c1N(C)c1nccc(-c2ccc(F)cc2C#N)n1 [Cpd 18, 2-(2-((2-ethyl-6-(4-(2-(3-hydroxyazetidin-1-yl)-2-oxoethyl)piperazin-1-yl)imidazo[1,2-a]pyrazin-3-yl)(methyl)amino)pyrimidin-4-yl)-5-fluorobenzonitrile] | > 1000 nM
27 | CCc1nc2ccc(N3CCC(NC(=O)C4(C)COC4)CC3)nn2c1N(C)c1nc(-c2ccc(F)cc2)cs1 [Cpd 86, N-(1-(2-ethyl-3-((4-(4-fluorophenyl)thiazol-2-yl)(methyl)amino)imidazo[1,2-b]pyridazin-6-yl)piperidin-4-yl)-3-methyloxetane-3-carboxamide] | > 1000 nM
28 | CCc1nc2ccc(N3CCC4(CCN(C(C)=O)C4)C3)nn2c1N(C)c1nc(-c2ccc(F)cc2)c(C#N)s1 (centres unmarked) [Cpd 167, 2-((6-(7-acetoyl-2,7-diazaspiro[4.4]nonan-2-yl)-2-ethylimidazo[1,2-b]pyridazin-3-yl)(methyl)amino)-4-(4-fluorophenyl) thiazole-5-carbonitrile] | 0.01 to 100 nM
29 | CCc1nc2ccc(N3CCN(CC4CNC(=O)O4)CC3)nn2c1N(C)c1nc(-c2ccc(F)cc2)c(C#N)s1 (centres unmarked) [Cpd 160, 2-((2-ethyl-6-(4-((2-oxooxazolidin-5-yl)methyl)piperazin-1-yl)imidazo[1,2-b]pyridazin-3-yl)(methyl)amino)-4-(4-fluorophenyl) thiazole-5-carbonitrile] | 0.01 to 100 nM
